Laboratory results taken from patent US20100279997A1, “ANALGESIC THAT BINDS FILAMIN A” (priority 2009, published 2010).
Like-named read-outs stand apart in the source and are kept apart here.

How the values were obtained:
μ opiate receptor (MOR) = biological target: T1, μ opiate receptor (MOR) (Rattus norvegicus, UniProt P33535); assay: MOR agonist activity, [35S]GTPγS binding assay using striatal membranes; type: biochemical; settings: for [35S]GTPγS binding to Gαo, FLNA-binding compound as agonist 0.1 μM: 0.1 μM compound; for [35S]GTPγS binding to Gαo, FLNA-binding compound as agonist 0.1 μM / [35S]GTPγS binding to Gαo, FLNA-binding compound as agonist 1 μM: striatal membranes; for [35S]GTPγS binding to Gαo, FLNA-binding compound as agonist 1 μM + BFNA: 1 μM compound + 1 μM β-funaltrexamine; for [35S]GTPγS binding to Gαo, FLNA-binding compound as agonist 1 μM: 1 μM compound; for % DAMGO + BFNA: relative to DAMGO + BFNA; for % DAMGO (0.1 μM) / % DAMGO (1 μM): relative to DAMGO
T1 construct: from tissue; host or cells: striatal tissue (membrane preparation)
T1 sequence (P33535 whole entry): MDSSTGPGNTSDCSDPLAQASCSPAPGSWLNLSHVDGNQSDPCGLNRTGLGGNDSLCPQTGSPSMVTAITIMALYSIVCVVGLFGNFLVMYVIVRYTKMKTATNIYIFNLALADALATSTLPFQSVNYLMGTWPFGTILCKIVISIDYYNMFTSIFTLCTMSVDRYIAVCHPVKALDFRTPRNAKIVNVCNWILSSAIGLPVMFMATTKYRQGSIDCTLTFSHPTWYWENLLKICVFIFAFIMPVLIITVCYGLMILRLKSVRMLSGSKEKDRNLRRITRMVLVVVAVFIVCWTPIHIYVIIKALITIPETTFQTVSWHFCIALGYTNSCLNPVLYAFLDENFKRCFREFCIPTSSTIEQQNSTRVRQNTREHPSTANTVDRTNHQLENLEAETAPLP
Procedure: To assess the μ opiate receptor (MOR) agonist activity of positive compounds from the FLNA screening, compounds were tested in a [^35S]GTPγS binding assay using striatal membranes.
Striatal tissue was homogenized in 10 volumes of ice cold 25 mM HEPES buffer, pH 7.4, which contained 1 mM EGTA, 100 mM sucrose, 50 μg/ml leupeptin, 0.04 mM PMSF, 2 μg/ml soybean trypsin inhibitor and 0.2% 2-mercaptoethanol. The homogenates were centrifuged at 800×g for 5 minutes and the supernatants were centrifuged at 49,000×g for 20 minutes. The resulting pellets were suspended in 10 volume of reaction buffer, which contained 25 mM HEPES, pH 7.5, 100 mM NaCl, 50 μg/ml leupeptin, 2 μg/ml soybean trypsin inhibitor, 0.04 mM PMSF and 0.02% […].
The resultant striatal membrane preparation (200 μg) was admixed and maintained (incubated) at 30° C. for 5 minutes in reaction buffer as above that additionally contained 1 mM MgCl2 and 0.5 nM [^35S]GTPγS (0.1 μCi/assay, PerkinElmer Life and Analytical Sciences) in a total volume of 250 μl and continued for 5 minutes in the absence or presence of 0.1-10 μM of an assayed compound of interest. The reaction was terminated by dilution with 750 μl of ice-cold reaction buffer that contained 20 mM MgCl2 and 1 mM EGTA and immediate centrifugation at 16,000×g for 5 minutes.
The resulting pellet was solubilized by sonicating for 10 seconds in 0.5 ml of immunoprecipitation buffer containing 0.5% digitonin, 0.2% sodium cholate and 0.5% NP-40. Normal rabbit serum (1 μl) was added to 1 ml of lysate and incubated at 25° C. for 30 minutes. Nonspecific immune complexes were removed by incubation with 25 μl of protein A/G-conjugated agarose beads at 25° C. for 30 minutes followed by centrifugation at 5,000×g at 4° C. for 5 minutes. The supernatant was divided and separately incubated at 25° C. for 30 minutes with antibodies raised against Gao proteins (1:1,000 dilutions).
The immunocomplexes so formed were collected by incubation at 25° C. for 30 minutes with 40 μl of agarose-conjugated protein A/G beads and centrifugation at 5,000×g at 4° C. for 5 minutes. The pellet was washed and suspended in buffer containing 50 mM Tris-HCl, pH 8.0, and 1% NP-40. The radioactivity in the suspension was determined by liquid scintillation spectrometry. […] DAMGO (H-Tyr-D-Ala-Gly-N-MePhe-Gly-OH; 1 or 10 μM) was used as a positive control.

[1] = biological target: Bn-VAKGL pentapeptide of filamin A (FLNA) (Homo sapiens, UniProt P21333); assay: FITC-NLX-based FLNA screening assay (FLNA peptide binding assay)
Procedure: The final assay volume is 100 μl.
Compounds are tested in triplicate or quadruplicate.

[2] = read-out: Percent inhibition of FITC-NLX binding, 0.1 μM, 0.1 μM compound, 10 nM FITC-NLX
[3] = read-out: Percent inhibition of FITC-NLX binding, 0.01 μM
[4] = read-out: Percent inhibition of FITC-NLX binding, 0.1 μM
[5] = read-out: Percent inhibition of FITC-NLX binding, 1 μM

| SMILES | [35S]GTPγS binding to Gαo, FLNA-binding compound as agonist 0.1 μM (μ opiate receptor (MOR)) [%] | [35S]GTPγS binding to Gαo, FLNA-binding compound as agonist 1 μM + BFNA (μ opiate receptor (MOR)) [%] | [35S]GTPγS binding to Gαo, FLNA-binding compound as agonist 1 μM (μ opiate receptor (MOR)) [%] | other results |
| --- | --- | --- | --- | --- |
| CC1CN(CC(O)COc2ccccc2C(C)C)CC(C)O1 (stereo not shown) [Compound A0029] | 173.8 | 22.3 | 206.5 | inhibition at 0.1 µM [1, 2]: 44.4% |
| CC1CCC(C(C)C)C(OCC(O)CN2CCc3ccccc3C2)C1 (stereo not shown) [Compound A0040] | 46.1 | 16.7 | 149.0 |  |
| CC1CN(CC(O)COc2cccc(N(C)C)c2)CC(C)O1 (stereo not shown) [Compound A0042] | 147.5 | 89.5 | 233.1 |  |
| CC1CN(CC(O)COc2ccccc2Br)CC(C)O1 (stereo not shown) [Compound A0043] | 183.3 | 89.1 | 223.8 |  |
| CC(=O)c1ccc(OCC(O)CN2CC(C)OC(C)C2)cc1 (stereo not shown) [Compound A0044] | 176.2 | 134.7 | 209.1 |  |
| CC1CN(CC(O)COc2ccc(Br)c(Cl)c2)CC(C)O1 (stereo not shown) [Compound A0045] | 143.9 | 99.2 | 274.2 |  |
| CC1CN(CC(O)COc2cc(F)cc(F)c2)CC(C)O1 (stereo not shown) [Compound A0046] | 257.5 | 140.0 | 354.1 | % DAMGO + BFNA (μ opiate receptor (MOR)): 189.4%; % DAMGO (0.1 μM) (μ opiate receptor (MOR)): 131.2%; % DAMGO (1 μM) (μ opiate receptor (MOR)): 128.3% |
| CC1CN(CC(O)COc2ccc(Cl)cc2)CC(C)O1 (stereo not shown) [Compound A0047] | 233.0 | 116.5 | 255.0 |  |
| COc1ccc(OCC(O)CN2CC(C)OC(C)C2)cc1 (stereo not shown) [Compound A0048] | 233.7 | 167.2 | 302.9 |  |
| CN(C)c1cccc(OCC(O)CN2CCc3ccccc3C2)c1 (stereo not shown) [Compound A0050] | 151.0 | 81.0 | 189.3 |  |
| CC1CN(CC(O)COc2cccc(C(F)(F)F)c2)CC(C)O1 (stereo not shown) [Compound A0051] | 290.4 | 211.6 | 386.6 |  |
| COc1ccc(OCC(O)CN2CCc3ccccc3C2)cc1 (stereo not shown) [Compound A0053] | 78.5 | 15.1 | 118.2 |  |
| OC(COc1cccc(C(F)(F)F)c1)CN1CCc2ccccc2C1 (stereo not shown) [Compound A0054] | 74.9 | 114.1 | 159.2 |  |
| OC(COc1cccc(F)c1)CN1CCc2ccccc2C1 (stereo not shown) [Compound A0055] | 89.8 | 33.5 | 195.2 |  |
| CC1CCC(C(C)C)C(OCC(O)CN2CCC(=O)C(C)C2)C1 (stereo not shown) [Compound A0056] | 115.6 | 17.4 | 129.6 |  |
| OC(CN1CCc2ccccc2C1)OCc1ccc(Br)c(F)c1 (stereo not shown) [Compound A0057] | 124.2 | 44.8 | 192.1 | % DAMGO + BFNA (μ opiate receptor (MOR)): 112.3%; % DAMGO (0.1 μM) (μ opiate receptor (MOR)): 79.6%; % DAMGO (1 μM) (μ opiate receptor (MOR)): 83.3%; inhibition at 0.01 µM [1, 3]: 29.1%; inhibition at 0.1 µM [1, 4]: 37%; inhibition at 1 µM [1, 5]: 43.4% |
| OC(COc1ccc(Br)c(F)c1)CN1CCCCC1 (stereo not shown) [Compound A0058] | 70.7 | 59.9 | 244.3 |  |
| OC(COc1ccc(Br)c(F)c1)CN1CCSCC1 (stereo not shown) [Compound A0059] | 99.2 | 85.7 | 129.9 |  |
| CC1CCC(C(C)C)C(OCC(O)CN2CCC(=O)CC2)C1 (stereo not shown) [Compound A0060] | 99.7 | 14.3 | 158.2 |  |
| COc1c2c(cc3c1OCO3)CCN(CC(O)COC1CC(C)CCC1C(C)C)C2 (stereo not shown) [Compound A0061] | 110.3 | 10.7 | 197.1 |  |
| OC(COc1ccc(Br)c(F)c1)CN1CCN(CCN2CCOCC2)CC1 (stereo not shown) [Compound A0063] | 122.8 | 310 | 245.8 | % DAMGO + BFNA (μ opiate receptor (MOR)): 77.7%; % DAMGO (0.1 μM) (μ opiate receptor (MOR)): 78.7%; % DAMGO (1 μM) (μ opiate receptor (MOR)): 106.6%; inhibition at 0.01 µM [1, 3]: 21.2%; inhibition at 0.1 µM [1, 4]: 31%; inhibition at 1 µM [1, 5]: 38.8% |
| CC1CCC(C(C)C)C(OCC(O)CN2CCOc3ccccc32)C1 (stereo not shown) [Compound A0066] | 151.9 | 59.2 | 195.6 | % DAMGO + BFNA (μ opiate receptor (MOR)): 171.6%; % DAMGO (0.1 μM) (μ opiate receptor (MOR)): 88.3%; % DAMGO (1 μM) (μ opiate receptor (MOR)): 89.0%; inhibition at 0.01 µM ([1]; read-out: Percent inhibition of FITC-NLX binding, 0.01 μM, 0.01 μM compound, 10 nM FITC-NLX): 36.7%; inhibition at 0.1 µM [1, 2]: 45.4%; inhibition at 1 µM ([1]; read-out: Percent inhibition of FITC-NLX binding, 1 μM, 1 μM compound, 10 nM FITC-NLX): 53.7% |
| CC1CCC(C(C)C)C(OCC(O)CN2CCCc3ccccc32)C1 (stereo not shown) [Compound A0068] | 73.9 | 98.1 | 110.4 |  |
| COc1ccc(OCC(O)CN2CCc3ccccc32)cc1 (stereo not shown) [Compound A0069] |  |  |  | inhibition at 0.01 µM [1, 3]: 32%; inhibition at 0.1 µM [1, 4]: 40.4%; inhibition at 1 µM [1, 5]: 46.1% |
| COc1ccc(OCC(O)CN2CCOc3ccccc32)cc1 (stereo not shown) [Compound A0076] | 79.8 | 41.2 | 172.6 | % DAMGO + BFNA (μ opiate receptor (MOR)): 119.4%; % DAMGO (0.1 μM) (μ opiate receptor (MOR)): 46.4%; % DAMGO (1 μM) (μ opiate receptor (MOR)): 78.6% |
| COc1ccc(OCC(O)Cn2ccc3ccccc32)cc1 (stereo not shown) [Compound A0077] | 300.1 | 103.5 | 334.7 | % DAMGO + BFNA (μ opiate receptor (MOR)): 470.5%; % DAMGO (0.1 μM) (μ opiate receptor (MOR)): 170.5%; % DAMGO (1 μM) (μ opiate receptor (MOR)): 132.3% |
| CC1CCC(C(C)C)C(OCC(O)Cn2ccc3ccccc32)C1 (stereo not shown) [Compound A0078] | 250.5 | 147.8 | 289.9 |  |
